Some test systems named below: NCI/ADR-RES ovarian; K-562 leukemia; SK-MEL-5 melanoma; OVCAR-8 ovarian; DU-145 prostate; KM12 colon; SR leukemia; HOP-92 NSCLC; OVCAR-3 ovarian; HOP-62 NSCLC.
Experiment in all cases: NCI tumour cell line growth inhibition, 48 h

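All cell lines were grown in 96-well plates and treated with compound for 48 hours. Abbreviation: GI50, concentration required for 50% inhibition of growth. TGI marks complete inhibition of growth.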 Where only a bound is given, the exact number is not on record here.

Regarding `Cc1[nH]c2ccccc2c1CO`, the GI50 in the assay with NCI/ADR-RES ovarian is 19.5 µM; in the assay with K-562 leukemia it was 18.6 µM; in the assay on SK-MEL-5 melanoma, 18.1 µM; in the assay with OVCAR-8 ovarian, 31 µM; in the assay on DU-145 prostate it was 0.0457 µM; in the assay with KM12 colon, 4.84 µM. The GI50 was 25.1 µM with SR leukemia, 14.6 µM with HOP-92 NSCLC, 5.54 µM in the assay on OVCAR-3 ovarian and 28.1 µM in the assay on HOP-62 NSCLC. In addition, the TGI in the assay with NCI/ADR-RES ovarian is 60.3 µM; in the assay on K-562 leukemia it was 61.4 µM; with SK-MEL-5 melanoma, 36.9 µM; in the assay on OVCAR-8 ovarian, over 100 µM; in the assay on DU-145 prostate, 18.1 µM; with KM12 colon, 19.4 µM. The TGI is over 100 µM in the assay with SR leukemia, 40.9 µM in the assay on HOP-92 NSCLC, 19.6 µM in the assay on OVCAR-3 ovarian and over 100 µM in the assay on HOP-62 NSCLC.

For the compound `COc1cc(-n2cc(-c3ccc(Cl)cc3)n(-c3ccccc3)c2=O)cc(OC)c1OC`, the GI50 in the assay on NCI/ADR-RES ovarian is 21.5 µM; in the assay with K-562 leukemia it was 13.6 µM; in the assay with SK-MEL-5 melanoma, 3.99 µM; in the assay with OVCAR-8 ovarian, 27.7 µM; in the assay on DU-145 prostate, 43.6 µM; with KM12 colon, 23.3 µM. The GI50 in the assay with SR leukemia was 4.48 µM; in the assay on HOP-92 NSCLC, 22.7 µM; with OVCAR-3 ovarian, 16.3 µM; with HOP-62 NSCLC it was 44.3 µM. The TGI in the assay with NCI/ADR-RES ovarian is over 100 µM; with K-562 leukemia, over 100 µM; in the assay with SK-MEL-5 melanoma, 17.7 µM; in the assay on OVCAR-8 ovarian it was over 100 µM; in the assay on DU-145 prostate, over 100 µM; in the assay on KM12 colon it was over 100 µM. For the same compound, the TGI in the assay on SR leukemia was over 38.4 µM; in the assay on HOP-92 NSCLC, over 100 µM; in the assay on OVCAR-3 ovarian, over 86.2 µM; in the assay on HOP-62 NSCLC it was over 100 µM.

Take `NC(=O)c1cn(C2CC(O)C(CO)O2)c2ncnc(N)c12` (stereo not given): the GI50 was 2 µM in the assay with NCI/ADR-RES ovarian; 4.21 µM with K-562 leukemia; 5.42 µM in the assay with SK-MEL-5 melanoma; 2.09 µM with OVCAR-8 ovarian; 1.41 µM in the assay with DU-145 prostate; 5.18 µM in the assay on KM12 colon. The GI50 in the assay on SR leukemia is 6.6 µM; in the assay with HOP-92 NSCLC it was 0.429 µM; with OVCAR-3 ovarian, 4.09 µM; in the assay with HOP-62 NSCLC it was 5.36 µM. The TGI is 24.2 µM in the assay with NCI/ADR-RES ovarian; over 100 µM in the assay on K-562 leukemia; 31.9 µM in the assay with SK-MEL-5 melanoma; 17.9 µM in the assay with OVCAR-8 ovarian; 10.4 µM in the assay on DU-145 prostate; 28.4 µM in the assay on KM12 colon. The TGI with SR leukemia was over 100 µM; with HOP-92 NSCLC, 13.6 µM; in the assay with OVCAR-3 ovarian, 19.6 µM; with HOP-62 NSCLC, 49.7 µM.

In the case of `COc1cccc(/C=C2\CCC(CN(C)C)C2=O)c1` (stereo not given), the TGI is 6.56 µM in the assay with NCI/ADR-RES ovarian; 4.89 µM in the assay with K-562 leukemia; 24.8 µM with SK-MEL-5 melanoma; 9.55 µM with OVCAR-8 ovarian; 9.29 µM in the assay with DU-145 prostate; 15.1 µM with KM12 colon. Further, the TGI is 8.43 µM in the assay on SR leukemia, 33.9 µM in the assay on HOP-92 NSCLC, 11.9 µM with OVCAR-3 ovarian and 21 µM in the assay with HOP-62 NSCLC.

In the case of `Cc1ccc(-c2cc(C(=O)Nc3ccc(S(=O)(=O)N4CCCCC4)cc3)[nH]n2)c(O)c1`, the GI50 in the assay with NCI/ADR-RES ovarian was over 100 µM; with K-562 leukemia it was 74.1 µM; in the assay with SK-MEL-5 melanoma, over 100 µM; in the assay on OVCAR-8 ovarian, over 100 µM; with DU-145 prostate it was over 100 µM; in the assay with KM12 colon, over 100 µM. Also, the GI50 with SR leukemia is 22.3 µM; with HOP-92 NSCLC, over 100 µM; with OVCAR-3 ovarian it was over 100 µM; with HOP-62 NSCLC, over 100 µM. In addition, the TGI with NCI/ADR-RES ovarian, with K-562 leukemia, in the assay on SK-MEL-5 melanoma, in the assay on OVCAR-8 ovarian, in the assay with DU-145 prostate and with KM12 colon was over 100 µM each time. Moreover, the TGI in the assay on SR leukemia, in the assay on HOP-92 NSCLC, in the assay with OVCAR-3 ovarian and in the assay with HOP-62 NSCLC was over 100 µM each time.

Turning to `Cc1cc(-c2nc3sc(C)cn3c2/C=N/N=C(N)N)c(C)s1`, the GI50 in the assay with NCI/ADR-RES ovarian was 14.6 µM; in the assay with K-562 leukemia, over 100 µM; in the assay with SK-MEL-5 melanoma, 1.89 µM; in the assay with OVCAR-8 ovarian, 17.6 µM; in the assay on DU-145 prostate, 6.11 µM; with KM12 colon, 2.68 µM. Moreover, the GI50 in the assay with SR leukemia is over 100 µM; in the assay with HOP-92 NSCLC, 3.03 µM; in the assay on OVCAR-3 ovarian it was 2.04 µM; with HOP-62 NSCLC it was 3.17 µM. Moreover, the TGI in the assay on NCI/ADR-RES ovarian was 29.2 µM; with K-562 leukemia, over 100 µM; in the assay with SK-MEL-5 melanoma, 3.8 µM; in the assay with OVCAR-8 ovarian, 43.6 µM; in the assay on DU-145 prostate it was 23 µM; with KM12 colon, 9.62 µM. The TGI is over 100 µM in the assay with SR leukemia, 8.21 µM with HOP-92 NSCLC, 9.56 µM with OVCAR-3 ovarian and 8.64 µM with HOP-62 NSCLC.

For the compound `COC(=O)CCc1n(Cc2ccc3ccccc3c2)c2ccccc2[n+]1Cc1ccc2ccccc2c1`, the GI50 in the assay on NCI/ADR-RES ovarian is 18.7 µM; in the assay with K-562 leukemia, 0.379 µM; in the assay on SK-MEL-5 melanoma, 0.415 µM; with OVCAR-8 ovarian it was 1.27 µM; in the assay with DU-145 prostate, 1.45 µM; with KM12 colon, 0.685 µM. For the same compound, the GI50 with SR leukemia was 0.403 µM; in the assay on HOP-92 NSCLC it was 0.152 µM; in the assay with OVCAR-3 ovarian, 0.682 µM; with HOP-62 NSCLC, 1.66 µM. Also, the TGI was 65.1 µM in the assay on NCI/ADR-RES ovarian; 1.63 µM with K-562 leukemia; 1.56 µM in the assay with SK-MEL-5 melanoma; 3.02 µM in the assay on OVCAR-8 ovarian; 3.34 µM in the assay on DU-145 prostate; 2.12 µM in the assay with KM12 colon. The TGI was found to be 2.05 µM with SR leukemia, 1.12 µM in the assay on HOP-92 NSCLC, 2.15 µM with OVCAR-3 ovarian and 3.46 µM in the assay with HOP-62 NSCLC.

With `Cn1cnc([N+](=O)[O-])c1S(=O)(=O)Oc1ccc(Cl)cc1`, the GI50 in the assay on NCI/ADR-RES ovarian is 11.7 µM; in the assay on K-562 leukemia it was 2.99 µM; in the assay on SK-MEL-5 melanoma, 15.7 µM; in the assay on OVCAR-8 ovarian it was 18.8 µM; in the assay with DU-145 prostate, 4.75 µM; in the assay with KM12 colon, 23 µM. Moreover, the GI50 in the assay with SR leukemia is 1.85 µM; in the assay with HOP-92 NSCLC it was 1.61 µM; in the assay with OVCAR-3 ovarian, 1.86 µM; in the assay with HOP-62 NSCLC, 16.1 µM. In addition, the TGI amounted to 64.3 µM in the assay on NCI/ADR-RES ovarian; 10.2 µM in the assay with K-562 leukemia; 32.3 µM in the assay with SK-MEL-5 melanoma; 97.1 µM in the assay with OVCAR-8 ovarian; 17.8 µM with DU-145 prostate; 91.4 µM with KM12 colon. For the same compound, the TGI with SR leukemia is 4.36 µM; with HOP-92 NSCLC it was 3.37 µM; in the assay on OVCAR-3 ovarian, 3.42 µM; in the assay with HOP-62 NSCLC, 39 µM.

Source of the values: PubChem BioAssay (NCI).
